pIC50: −log10 of the molar value.
Legend:
[1] = biological target: T1, CXCR4 on the surface of SupT1 cells (Homo sapiens, UniProt P61073); experiment: Inhibition of binding of anti-CXCR4-PE antibody to CXCR4 on SupT1 cells (flow cytometry); conditions: for % positive / Mean fluorescence intensity / Median fluorescence intensity: anti-CXCR4-PE
T1 construct: constitutively express CXCR4 on the cell surface; host or cells: SupT1 cells
Description: The assay assesses the ability of glycomimetic compounds to inhibit binding of an anti-CXCR4 antibody conjugated to phycoerythrin (“PE”), to CXCR4 on the surface of SupT1 cells. SupT1 cells are a T lymphoblast derived from a lymphoblastic leukemia and constitutively express CXCR4 on the cell surface. The cells are purchased from ATCC (ATCC number CRL-1942). Anti-human CXCR4-phycoerythrin monoclonal antibody (anti-CXCR4-PE) is purchased from R&D Systems (catalog number FAB170P, clone 12G5). The cells are grown in RPMI 1640 medium supplemented with 10% FBS. Approximately 2×10^6 cells are washed three times by centrifuging the cells at 400×g for 10 minutes and the cell pellet is resuspended in PBS plus 0.05% BSA. After the third centrifugation, the cell pellet is resuspended in PBS plus BSA to a concentration of 5×10^5 cells per ml. To block non-specific binding, human […] is added to the cells to a concentration of 1 μg per 10^5 cells. Next, 200 μl (1×10^5 cells) are added to 5 ml polypropylene round-bottom tubes (Falcon 2063 tubes). Compound #1 (Example 1) (lot 31-190) is added to the cells at final concentrations of 0.5, 5, 10, and 50 μM. To achieve a final concentration of 0.5 μM, 2.2 μl of 50 μM Compound #1 plus 19.8 μl of PBS/BSA are added to 200 μl of cells. To achieve a final concentration of 5 μM, 22 μl of 50 μM Compound #1 are added to 200 μl of cells. To achieve a final concentration of 10 μM, 4.4 μl of 500 μM Compound #1 plus 17.6 μl of PBS/BSA are added to 200 μl of cells. To achieve a final concentration of 50 μM, 22 μl of 500 μM Compound #1 are added to 200 μl of cells. Other aliquots of cells are treated with either 1 or 5 μM of the bicyclam CXCR4 antagonist AMD-3100 (Sigma Aldrich, catalog #A5602). To achieve a final concentration of 1 μM AMD-3100, 4.4 μl of 50 μM AMD-3100 plus 17.6 μl of PBS/BSA are added to 200 μl of cells and to achieve a final concentration of 5 μM, 22 μl of 50 μM AMD-3100 are added to 200 μl of cells. In addition, one tube of cells is treated with 1 μg/ml of SDF-1α (R&D Systems catalog #350-NS), the natural ligand of CXCR4. The tubes are placed at 4° C. for 15 minutes. Subsequently, each tube receives 10 μl of anti-CXCR4-PE, except one tube of cells receives 10 μl of mouse IgG 2A isotype control antibody. The tubes are incubated at 4° C. for 45 minutes. The cells are washed twice with PBS plus 0.05% BSA and the final cell pellet is resuspended in 100 μl of PBS/BSA. To fix the samples, 100 μl of 2% formaldehyde (Polysciences, Inc. ultrapure EM grade, catalog number 04018) are added to each tube. Flow cytometry is performed using a Cytomation MoFlo instrument.

E-selectin/Ig chimera = experiment: E-selectin competitive binding assay (sLe^a polyacrylamide conjugate); conditions: FIGS. 4 and 5
Experimental: The inhibition assay to screen glycomimetic antagonists of E-selectin is a competitive binding assay, which allows the determination of IC50 values. Briefly, E-selectin/Ig chimera is immobilized by incubation at 37° C. in 96 well microtiter plates for 2 hours. To reduce nonspecific binding, bovine serum albumin is added to each well and incubated at room temperature for 2 hours. The plate is washed and serial dilutions of the test compounds are added to the wells in the presence of conjugates of biotinylated, sLe^a polyacrylamide with streptavidin/horseradishperoxidase and incubated for 2 hours at room temperature. To determine the amount of sLe^a bound to immobilized E-selectin after washing, the peroxidase substrate, 3,3′,5,5′ tetramethylbenzidin (TMB) is added. After 3 minutes, the enzyme reaction is stopped by the addition of H3PO4 and the absorbance of light at a wavelength of 450 nm is determined. The concentration of test compound required to inhibit binding by 50% is determined and reported as the IC50 value for each glycomimetic E-selectin antagonist. In addition to reporting the absolute IC50 value as measured above, relative IC50 values are determined by a ratio of the IC50 measured for the test compound to that of an internal control (reference) stated for each assay.

T1 sequence (P61073 whole entry): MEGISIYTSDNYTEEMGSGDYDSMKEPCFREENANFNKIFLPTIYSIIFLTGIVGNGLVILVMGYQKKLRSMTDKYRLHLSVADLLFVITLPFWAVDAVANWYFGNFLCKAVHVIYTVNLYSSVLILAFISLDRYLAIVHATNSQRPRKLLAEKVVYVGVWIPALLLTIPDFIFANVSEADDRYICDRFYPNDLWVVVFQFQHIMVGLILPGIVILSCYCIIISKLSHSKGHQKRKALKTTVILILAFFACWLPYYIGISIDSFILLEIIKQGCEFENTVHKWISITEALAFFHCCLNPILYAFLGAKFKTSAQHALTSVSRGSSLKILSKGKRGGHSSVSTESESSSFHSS

For CC1CC(C(=O)NCCNCc2ccc(CN3CCCNCCNCCCNCC3)cc2)CC(OC2OC(CO)C(O)C(O[C@@H](CC3CCCCC3)C(=O)O)C2OC(=O)c2ccccc2)C1OC1OC(C)C(O)C(O)C1O (stereo partly shown) [Compound #1], the “Inhibition of binding of anti-CXCR4-PE antibody to CXCR4 (in words)” value [1] was “inhibits binding of anti-CXCR4-PE to SupT1 cells in a dose-dependent manner”, the “% positive” value ([1]; 0.5 μM inhibitor) was 98.69% and the Mean fluorescence intensity ([1]; 0.5 μM inhibitor) was 68.49. The Median fluorescence intensity ([1]; 0.5 μM inhibitor) was 54.25, the “% positive” value ([1]; 5 μM inhibitor) was 81.48% and the Mean fluorescence intensity ([1]; 5 μM inhibitor) was 22.25. For the same molecule, the Median fluorescence intensity ([1]; 5 μM inhibitor) was 13.34, the “% positive” value ([1]; 10 μM inhibitor) was 42.06% and the Mean fluorescence intensity ([1]; 10 μM inhibitor) was 14.08. The Median fluorescence intensity ([1]; 10 μM inhibitor) was 6.04, the “% positive” value ([1]; 50 μM inhibitor) was 12.80% and the Mean fluorescence intensity ([1]; 50 μM inhibitor) was 11.08. For the same molecule, the Median fluorescence intensity ([1]; 50 μM inhibitor) was 3.92, the pIC50 ([1]; anti-CXCR4-PE clone 12G5, 4° C.) was 5.08 and the “E-selectin antagonist activity (in words)” value (E-selectin/Ig chimera) was “potent E-selectin antagonist”.

With SDF-1α the “Inhibition of binding of anti-CXCR4-PE antibody to CXCR4 (in words)” value [1] was “efficiently inhibits binding”, the “% positive” value ([1]; 1 μg/ml inhibitor) was 12.37% and the Mean fluorescence intensity ([1]; 1 μg/ml inhibitor) was 10.25. It also gave a Median fluorescence intensity ([1]; 1 μg/ml inhibitor) of 4.07.

For c1cc(CN2CCCNCCNCCCNCC2)ccc1CN1CCCNCCNCCCNCC1 [AMD-3100, reference compound], the “% positive” value ([1]; 1 μM inhibitor) was 57.57%, the Mean fluorescence intensity ([1]; 1 μM inhibitor) was 15.60 and the Median fluorescence intensity ([1]; 1 μM inhibitor) was 7.77. The “% positive” value ([1]; 5 μM inhibitor) was 12.42%, the Mean fluorescence intensity ([1]; 5 μM inhibitor) was 9.98 and the Median fluorescence intensity ([1]; 5 μM inhibitor) was 3.92.

Source: patent US8410066B2, “Heterobifunctional inhibitors of E-selectins and CXCR4 chemokine receptors” (GlycoMimetics, Inc., priority 2009, dated 2013)
